Our source for the IC50 values is US9193719B2, “1,2,4-triazol-5-ones and analogs exhibiting anti-cancer and anti-proliferative activities” (Deciphera Pharmaceuticals, LLC, priority 2013, dated 2015).

The term IC50 denotes the point on the concentration scale where inhibition reaches its midpoint.

In test [1] the test system is M-NFS-60 cells. Put plainly: M-NFS-60 cell proliferation assay (resazurin). Type of test: cell-based. The settings on record: 67 h incubation. The procedure:
M-NFS-60 cells (catalog #CRL-1838) were obtained from the American Type Culture Collection (ATCC, Manassas, Va.). Briefly, cells were grown in suspension in RPMI 1640 medium supplemented with 10% characterized fetal bovine serum (Invitrogen, Carlsbad, Calif.), 0.05 mM 2-mercaptoethanol, and 20 ng/mL mouse recombinant macrophage colony stimulating factor (M-CSF) at 37° C., 5% CO2, and 95% humidity. Cells were allowed to expand until reaching saturation at which point they were subcultured or harvested for assay use.
M-NFS-60 Cell Proliferation Assay
A serial dilution of test compound was dispensed into a 384-well black clear bottom plate (Corning, Corning, N.Y.). Two thousand five hundred cells were added per well in 50 μL complete growth medium. Plates were incubated for 67 h at 37° C., 5% CO2, and 95% humidity. At the end of the incubation period 10 μL of a 440 μM solution of resazurin (Sigma, St. Louis, Mo.) in PBS was added to each well and incubated for an additional 5 h at 37° C., 5% CO2, and 95% humidity. Plates were read on a Synergy2 reader (Biotek, Winooski, Vt.) using an excitation of 540 nm and an emission of 600 nm. IC50 values were calculated from a series of percent inhibition values determined at a range of inhibitor concentrations using software routines as implemented in the GraphPad Prism software package.
For orientation: The colour change of resazurin is a common sign of viable cells or microbes.

Test [2] concerns the target T1, unphosphorylated c-KIT kinase (uKIT, Seq. ID no. 2) (Homo sapiens, UniProt P10721).
T1 construct: uKit with N-terminal GST fusion used for screening
Put plainly: uKit kinase enzymatic assay (pyruvate kinase/lactate dehydrogenase coupled). Particulars: ATP 2000 μM, rate 3 to 4 h. Type of test: biochemical. As for the experimental part:
uKit Kinase (Seq. ID No. 2) Assay
Activity of unphosphorylated c-KIT kinase (uKIT, Seq. ID no. 2) was determined by following the production of ADP from the KIT kinase reaction with ATP and poly E4Y as substrates through coupling with the pyruvate kinase/lactate dehydrogenase system (e.g., Schindler et al. Science (2000) 289: 1938-1942). In this assay, the oxidation of NADH (thus the decrease at A340 nm) was continuously monitored spectrophometrically. The reaction mixture (100 μl) contained unphosphorylated KIT (12 nM), polyE4Y (1 mg/mL), MgCl2 (10 mM), pyruvate kinase (4 units), lactate dehydrogenase (0.7 units), phosphoenol pyruvate (1 mM), and NADH (0.28 mM) and ATP (2000 μM) in 90 mM Tris buffer containing 0.2% octyl-glucoside and 1% DMSO, pH 7.5. The inhibition reaction was started by mixing serial diluted test compound with the above reaction mixture. The absorption at 340 nm was monitored continuously for 4 hours at 30° C. on Synergy 2 plate reader (BioTech). Reaction rates around 3 to 4 h time frame were used to calculate % inhibitions, from which IC50 values were generated.

In test [3] the test system is osteoclast precursors. Put plainly: Osteoclast tartrate-resistant acid phosphatase assay. Type of test: cell-based. The settings on record: RANKL and M-CSF, 7-14 days, tartrate-resistant acid phosphatase activity. As for the experimental part:
Osteoclast Tartrate-Resistant Acid Phosphatase Assay
A serial dilution of test compound was dispensed into a 384-well black clear bottom plate (Nalge Nunc International, Rochester, N.Y.). Compound was diluted by the addition of DMEM media supplemented with 10% characterized fetal bovine serum (Invitrogen, Carlsbad, Calif.). Diluted compound was transferred to a 384-well black clear bottom plate. Two-thousand five hundred osteoclast precursors (Lonza, Walkersville, Md.) were added per well in growth media containing Receptor Activator of Nuclear Factor Kappa-beta ligand (RANKL) and M-CSF (R&D Systems, Minneapolis, Minn.). Plates were incubated for 7-14 days at 37 degrees Celsius, 5% CO2, and 95% humidity to allow differentiation of osteoclast precursors. At the end of the incubation period, 10 μL of supernatant from each well was transferred to a clear 384-well plate. Tartrate-resistant acid phosphatase activity in the supernatant samples was determined using an acid phosphatase assay kit (Sigma, St. Louis, Mo.). Absorbance was measured at 550 nm using a plate reader. Data was analyzed using Prism software (Graphpad, San Diego, Calif.) to calculate IC50 values.

Test [4] has as its target T2, unphosphorylated PDGFRβ kinase (uPDGFRβ, Seq. ID No. 3) (Homo sapiens, UniProt P09619).
T2 construct: purchased DeCode
Description: uPDGFRβ kinase enzymatic assay (pyruvate kinase/lactate dehydrogenase coupled). Type of test: biochemical. Particulars: ATP 500 μM, rate 1.5 to 2.5 h. The procedure:
Unphosphorylated PDGFRβ (uPDGFRβ) Kinase (Seq. ID No. 3) Assay
Activity of unphosphorylated PDGFRβ kinase (uPDGFRβ, Seq. ID No. 3) was determined by following the production of ADP from the kinase reaction with ATP and poly E4Y as substrates through coupling with the pyruvate kinase/lactate dehydrogenase system (e.g., Schindler et al. Science (2000) 289: 1938-1942). In this assay, the oxidation of NADH (thus the decrease at A340 nm) was continuously monitored spectrophometrically. The reaction mixture (100 μL) contained PDGFRβ (DeCode, 15.7 nM), polyE4Y (2.5 mg/mL), MgCl2 (10 mM), pyruvate kinase (4 units), lactate dehydrogenase (0.7 units), phosphoenol pyruvate (1 mM) and NADH (0.28 mM) and ATP (500 μM) in a 90 mM Tris buffer containing 0.2% octyl-glucoside and 1% DMSO, at pH 7.5. The inhibition reaction was started by mixing serial diluted test compound with the above reaction mixture. The absorption at 340 nm was monitored continuously for 4 h at 30° C. on a Polarstar Optima or Synergy 2 plate reader. The reaction rate was calculated using the 1.5 to 2.5 h time frame. Percent inhibition was obtained by comparison of reaction rate with that of a control (i.e. with no test compound). IC50 values were calculated from a series of percent inhibition values determined at a range of inhibitor concentrations using software routines as implemented in the GraphPad Prism software package.

In test [5] the target is T3, unphosphorylated c-FMS kinase (uFMS, Seq. ID no. 1) (Homo sapiens, UniProt P07333).
T3 construct: purchased Millipore
T3 sequence (P07333 538-972): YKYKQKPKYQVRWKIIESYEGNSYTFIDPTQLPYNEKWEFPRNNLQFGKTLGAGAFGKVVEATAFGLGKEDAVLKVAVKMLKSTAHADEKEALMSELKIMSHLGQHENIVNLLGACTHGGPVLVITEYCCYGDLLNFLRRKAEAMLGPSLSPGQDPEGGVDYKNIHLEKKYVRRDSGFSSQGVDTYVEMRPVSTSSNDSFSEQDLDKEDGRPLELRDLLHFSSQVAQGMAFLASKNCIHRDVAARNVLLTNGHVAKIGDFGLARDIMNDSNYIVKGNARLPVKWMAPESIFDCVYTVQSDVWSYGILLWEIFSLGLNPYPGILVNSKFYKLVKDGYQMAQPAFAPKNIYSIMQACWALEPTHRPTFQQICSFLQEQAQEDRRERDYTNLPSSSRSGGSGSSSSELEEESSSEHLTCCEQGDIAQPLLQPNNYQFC
Description: uFMS kinase enzymatic assay (pyruvate kinase/lactate dehydrogenase coupled). In kind it is biochemical. Particulars: ATP 500 μM, rate 3 to 4 h. The procedure: uFMS Kinase (Seq. ID No. 1) Assay
Activity of unphosphorylated c-FMS kinase (uFMS, Seq. ID no. 1) was determined by following the production of ADP from the FMS kinase reaction with ATP and poly E4Y as substrates through coupling with the pyruvate kinase/lactate dehydrogenase system (e.g., Schindler et al. Science (2000) 289: 1938-1942). In this assay, the oxidation of NADH (thus the decrease at A340 nm) was continuously monitored spectrophometrically. The reaction mixture (100 μL) contained FMS (purchased from Millipore) (10 nM), polyE4Y (1 mg/mL), MgCl2 (10 mM), pyruvate kinase (4 units), lactate dehydrogenase (0.7 units), phosphoenol pyruvate (1 mM), NADH (0.28 mM) and ATP (500 μM) in 90 mM Tris buffer containing 0.2% octyl-glucoside and 1% DMSO, pH 7.5. The inhibition reaction was started by mixing serial diluted test compound with the above reaction mixture. The absorption at 340 nm was monitored continuously for 4 hours at 30° C. on Synergy 2 plate reader. The reaction rate was calculated using the 3 to 4 h time frame. Percent inhibition was obtained by comparison of reaction rate with that of a control (i.e. in the absence of test compound). IC50 values were calculated from a series of percent inhibition values determined at a range of inhibitor concentrations using software routines as implemented in the GraphPad Prism software package.

T2 sequence (P09619 557-1106): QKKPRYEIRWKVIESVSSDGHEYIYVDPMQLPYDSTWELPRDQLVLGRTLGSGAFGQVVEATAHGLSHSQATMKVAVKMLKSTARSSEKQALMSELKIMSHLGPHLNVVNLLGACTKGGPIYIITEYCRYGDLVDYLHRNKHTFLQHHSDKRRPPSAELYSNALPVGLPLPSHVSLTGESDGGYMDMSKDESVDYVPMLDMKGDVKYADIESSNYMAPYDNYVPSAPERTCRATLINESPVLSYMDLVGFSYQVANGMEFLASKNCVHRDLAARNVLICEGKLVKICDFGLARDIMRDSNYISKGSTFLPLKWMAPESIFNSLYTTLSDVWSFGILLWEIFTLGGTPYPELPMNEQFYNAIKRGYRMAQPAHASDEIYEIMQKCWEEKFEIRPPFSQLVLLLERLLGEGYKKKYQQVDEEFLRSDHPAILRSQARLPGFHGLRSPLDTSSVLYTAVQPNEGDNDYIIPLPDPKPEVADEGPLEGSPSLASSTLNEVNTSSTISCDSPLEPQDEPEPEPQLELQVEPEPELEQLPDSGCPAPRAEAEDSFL
T1 sequence (P10721 with tags, fused parts or gaps): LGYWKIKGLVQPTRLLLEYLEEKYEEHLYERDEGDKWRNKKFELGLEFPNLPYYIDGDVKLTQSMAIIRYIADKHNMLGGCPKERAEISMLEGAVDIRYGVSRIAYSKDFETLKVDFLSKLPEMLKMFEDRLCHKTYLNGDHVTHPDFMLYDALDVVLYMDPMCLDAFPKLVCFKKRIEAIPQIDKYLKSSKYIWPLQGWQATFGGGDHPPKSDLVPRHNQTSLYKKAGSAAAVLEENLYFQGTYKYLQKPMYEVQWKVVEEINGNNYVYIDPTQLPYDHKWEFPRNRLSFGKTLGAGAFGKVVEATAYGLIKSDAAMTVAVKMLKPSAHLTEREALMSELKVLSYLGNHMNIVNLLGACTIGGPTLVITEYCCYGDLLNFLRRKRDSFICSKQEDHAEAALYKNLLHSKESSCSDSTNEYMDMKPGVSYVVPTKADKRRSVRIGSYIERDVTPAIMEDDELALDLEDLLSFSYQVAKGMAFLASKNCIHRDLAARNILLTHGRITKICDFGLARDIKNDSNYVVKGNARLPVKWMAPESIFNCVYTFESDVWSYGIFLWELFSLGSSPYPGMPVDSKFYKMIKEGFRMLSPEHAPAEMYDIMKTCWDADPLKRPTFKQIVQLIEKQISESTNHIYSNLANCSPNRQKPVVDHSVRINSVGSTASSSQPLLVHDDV

For the compound `Cc1nc(-n2nc(-c3ccc(F)cc3)[nH]c2=O)ccc1Oc1ccnc(NC(=O)C2CC2)c1` [Example 32, N-(4-((6-(3-(4-fluorophenyl)-5-oxo-4,5-dihydro-1H-1,2,4-triazol-1-yl)-2-methylpyridin-3-yl)oxy)pyridin-2-yl)cyclopropanecarboxamide], the IC50 fell in the range of 0.1 to 1 µM in test [1]; 0.01 to 0.1 µM in test [2]; 0.1 to 1 µM in test [3]; 0.1 to 1 µM in test [4]; 0.01 to 0.1 µM in test [5].

On to `Cc1nc(-n2nc(C(C)(C)C)[nH]c2=O)ccc1Oc1ccnc(-c2cn[nH]c2)c1` [Example 24, 1-(5-((2-(1H-pyrazol-4-yl)pyridin-4-yl)oxy)-6-methylpyridin-2-yl)-3-(tert-butyl)-1H-1,2,4-triazol-5(4H)-one], for which the IC50 in test [1] is 0.1 to 1 µM; in test [2], greater than 1 µM; in test [3], 0.1 to 1 µM; in test [4], greater than 1 µM; in test [5] it was 0.1 to 1 µM.

Regarding `Cc1nc(-n2nc(C(C)(C)C)[nH]c2=O)ccc1Oc1ccnc(-c2cn(C)cn2)c1` [Example 23, 3-(tert-butyl)-1-(6-methyl-5-((2-(1-methyl-1H-imidazol-4-yl)pyridin-4-yl)oxy)pyridin-2-yl)-1H-1,2,4-triazol-5(4H)-one], the IC50 in test [1] was 0.1 to 1 µM; in test [2], greater than 1 µM; in test [3], 0.01 to 0.1 µM; in test [4], greater than 1 µM; in test [5], 0.01 to 0.1 µM.

On to `Cc1nc(-n2nc(C3CCCC3)[nH]c2=O)ccc1Oc1ccnc(-c2cnn(C)c2)c1` [Example 34, 3-cyclopentyl-1-(6-methyl-5-((2-(1-methyl-1H-pyrazol-4-yl)pyridin-4-yl)oxy)pyridin-2-yl)-1H-1,2,4-triazol-5(4H)-one], for which the IC50 in test [1] is no more than 0.01 µM; in test [2] it was no more than 0.01 µM; in test [3], 0.01 to 0.1 µM; in test [4] it was 0.01 to 0.1 µM; in test [5], no more than 0.01 µM.

Turning to `Cc1ncc(-c2cc(Oc3ccc(-n4nc(C(C)(C)C)[nH]c4=O)nc3C)ccn2)s1` [Example 12, 3-(tert-butyl)-1-(6-methyl-5-((2-(2-methylthiazol-5-yl)pyridin-4-yl)oxy)pyridin-2-yl)-1H-1,2,4-triazol-5(4H)-one], the IC50 is 0.01 to 0.1 µM in test [1]; 0.1 to 1 µM in test [2]; 0.01 to 0.1 µM in test [3]; greater than 1 µM in test [4]; 0.01 to 0.1 µM in test [5].

`Cc1nc(-n2nc(C(C)(C)C)[nH]c2=O)ccc1Oc1ccnc(NC(=O)C2CCN(C)CC2)c1` [Example 21, N-(4-((6(3-(tert-butyl)-5-oxo-4,5-dihydro-1H-1,2,4-triazol-1-yl)-2-methylpyridin-3-yl)oxy)pyridin-2-yl)-1-methylpiperidine-4-carboxamide]: the IC50 in test [1] was greater than 1 µM; in test [2], greater than 1 µM; in test [3], 0.1 to 1 µM; in test [4], greater than 1 µM; in test [5], 0.1 to 1 µM.

For the compound `Cc1nc(-n2nc(C3CC3)[nH]c2=O)ccc1Oc1ccnc(-c2cnn(C)c2)c1` [Example 35, 3-cyclopropyl-1-(6-methyl-5-((2-(1-methyl-1H-pyrazol-4-yl)pyridin-4-yl)oxy)pyridin-2-yl)-1H-1,2,4-triazol-5(4H)-one], the IC50 is greater than 1 µM in test [1]; 0.1 to 1 µM in test [2]; 0.1 to 1 µM in test [3]; greater than 1 µM in test [4]; 0.1 to 1 µM in test [5].

As for `CNC(=O)c1cc(Oc2ccc(-n3nc(C(C)(C)C)[nH]c3=O)nc2)ccn1` [Example 26, 4-((6-(3-(tert-butyl)-5-oxo-4,5-dihydro-1H-1,2,4-triazol-1-yl)pyridin-3-yl)oxy)-N-methylpicolinamide], the IC50 in test [1] was greater than 1 µM; in test [2] it was greater than 1 µM; in test [3] it was 0.1 to 1 µM; in test [4], greater than 1 µM; in test [5] it was 0.01 to 0.1 µM.

As to `Cc1nc(-n2nc(C(C)(C)C)[nH]c2=O)ccc1Oc1ccnc(-c2ccnc(N3CCN(C)CC3)c2)c1` [Example 41, 3-(tert-butyl)-1-(6-methyl-5-((2′-(4-methylpiperazin-1-yl)-[2,4′-bipyridin]-4-yl)oxy)pyridin-2-yl)-1H-1,2,4-triazol-5(4H)-one], the IC50 in test [1] is greater than 1 µM; in test [2], greater than 1 µM; in test [3], 0.1 to 1 µM; in test [4], greater than 1 µM; in test [5], 0.1 to 1 µM.
